Patent US8022178B2, “Modified self-assembling peptides” (Massachusetts Institute of Technology, priority 2006, dated 2011)
Entries after “also recorded” stand apart in the source; their conditions may differ.

Experiments:
[1] = tested on: Mouse preosteoblast cell line (MC3T3-E1); assay: Osteocalcin secreted in culture medium (EIA); type: cell-based; details: FIG. 17 compared to FIG. 6; versus PRGmx or PRFmx
Experimental: Mouse preosteoblast cell line (MC3T3-E1) was used to compare the proliferation and differentiation effects of the motifs with RAD16-1 and Collagen-I hydrogels as controls. The proliferation was measured by DNA contents and the differentiation effects were evaluated using Alkaline phosphatase (ALP) activity and secreted Osteocalcin. Alkaline phosphatase is known to be differentiation marker of osteoblast in earlier stage. Secreted Osteocalcin is known to be differentiation marker of osteoblast in later stage and its activity is correlated with the bone mineralization.
1% RAD16-I solution [self-assembling peptide solution] was obtained as RAD16-I (Puramatrix™, 3DM Inc./BD Bioscience). The functionalized peptides of Table 2 were dissolved in water at final concentration of 1% (v/w). The functionalized peptide solutions were then mixed with 1% RAD16-I solution at a ratio of 1:1 (Table 4). Each peptide solution was loaded in the Culture plate inserts (10 mm diameter, Millicell-CM, Millipore). […]
Cell proliferation was evaluated using DNA contents in the hydrogel using PicoGreen dsDNA Kits (Molecular Probes). ALP activity was quantitatively measured from cell lysis using Alkaline Phosphatase Fluorescence Assay Kit (Sigma). Osteocalcin was measured from cell culture medium using Mouse Osteocalcin EIA Kit (Biomedical Technologies Inc.).

neurons = neurons grown on surface (Holmes 2000); cited from earlier work
[2] = tested on: bone defects of 4 mm diameter in rat skull; assay: Rat skull bone defect filled with hydrogel, bone formation evaluation; type: in vivo; details: grade 1 more than 80%, 2 more than 50%, 3 weak in X-ray
Experimental: The effects of the functionalized peptide were evaluated in vivo in rats. 6 weeks male rat sculls were used for this evaluation (two samples for each experiment).
The rats in this study underwent creation of two bone defects of 4 mm diameter, bilaterally in each skull. Some of the defects were left empty as controls.
The peptide solution was directly injected to the defects without cells. The peptide solution formed a hydrogel immediately after injection by the salt in the body fluid (e.g., blood, lymph fluid, and the like).
Bone Formation Evaluation: All animals from each group were euthanized 2 and 4 weeks later. The X-ray image of the skulls were taken. The skulls were collected, hemisected, and fixed in formalin. The defects were then trimmed, decalcified, embedded in paraffin, stained by HE staining method, and evaluated by a Veterinary pathologist, who characterized by histomorphometry the type of tissue contained within the defects. The degree of bone regeneration is graded as Complete recovery, 1 (more than 80%), 2 (more than 50%), or 3 (weak in X-ray).

[3] = tested on: HUVEC (human umbilical vein endothelial cells); assay: HUVEC culture on bFGF loaded peptide matrix; type: cell-based; details: Day 3; bFGF loaded matrix compared to negative and positive control; FIG. 21; listed as RAD-2P
Experimental: The effect of protein retention and delivery using the self-assembling peptide were studied (Table 11). bFGF was used as a model protein. The retention of bFGF in different peptide matrix in different charge condition was measured by ELISA after washing by PBS. After washing out unbound bFGF, the effect of protein retention to self-assembling peptide matrix were evaluated the using cell culturing of HUVEC (human umbilical vein endothelial cells).
The peptide solutions provided in Table 12 were loaded in the culture inserts (10 mm diameter, Millicell-CM, Millipore) and gels were formed using PBS. After gelation, bFGF solution in PBS was added inside and outside and plated for overnight. bFGF was loaded at 175 ng/insert. After loading bFGF, the PBS inside and outside the inserts were exchanged three times (2 hours, 9 hours and 12 hours) to remove unbound bFGF (Washing). […]
Cell culturing using cell culture medium (EGM-2-MV) was used without attached growth factor on peptide matrix as negative control. […] The bFGF concentration in washing buffer (PBS) and cell culture medium (EGM-2-MV) was measured using ELISA. […] Growth factor retention rate was calculated by accumulating the amount of measured bFGF. […]

[4] = tested on: adipose derived stem cells (ADSC); assay: Growth factors secreted by ADSC into the culture medium (ELISA); type: cell-based, human; details: from 1 day up to 7 days of culture, control tissue culture plate, FIG. 35
Experimental: The peptide solutions shown in Table 25 were loaded in the culture inserts (10 mm diameter, Millicell-CM, Millipore) and gels were formed using cell culture medium (DMEM-F12+10% FBS, Gibco). ADSC were plated at 4×10^4 cells on the inserts and cultured up to 7 Days.
The growth factors secreted into the culture medium were also evaluated using ELISA method (FIGS. 35A-35B). The growth factors secreted from stem cell are considered to be main source of the cell therapy by reducing apotosis and increasing angiogenesis. Especially HGF and VEGF are considered to key components for reducing apotosis and increasing angiogenesis. The medium of ADSC cultured on tissue culture plate was used as control (shown as TCP). […] For VEGF, all peptide matrix had increase of VEGF secretion in 1 day culture medium.

Liver progenitor cells = details: encapsulated liver progenitor cells (Semino 2003); cited from earlier work
[5] = tested on: chick Chorioallantoic Membrane; assay: Chorioallantoic Membrane (CAM) assay of angiogenesis; type: in vivo, chicken; details: hydrogel placed Day 8, histology Day 12, FIG. 30
Experimental: In vivo study of angiogenesis was performed using Chorioallantoic Membrane (CAM) assay. At Day 8 of fertilized chicken egg incubation, hydrogels of 10 mm diameter with 1 mm thickness were transferred to chick Chorioallantoic Membrane. The hydrogels were selected from Table 19 and gels were formed before the transfer. On Day 12, CAMs were collected for histology. The angiogenesis inside and below the hydrogel were evaluated by histological cross section.

Row | Substance | effect to promote differentiation (osteocalcin) [1] | neurite outgrowth and synapse formation (neurons) | Average score (degree of bone regeneration) ([2]; four weeks) | Average score (degree of bone regeneration) ([2]; two weeks) | cell attachment and cell spread [3] | HGF secreted into the culture medium [4] | hepatocyte marker expression (Liver progenitor cells) | angiogenesis inside and below the hydrogel [5]
1 | Ac(RADA)4GGFHRRIKA-CONH2 (Ac-RADARADARADARADAGGFHRRIKA-NH2) [FHR = 1% solution; FHR-2P = 2% solution] | not so strong |  |  |  |  |  |  | 
2 | Ac(RADA)4-CONH2 |  | able to serve as a substrate for neurite outgrowth and formation of functionally active synapses | 1.0 | 3.0 | superior; also recorded: dominant effect | significant increase | expressed markers indicative of hepatocyte phenotype | no angiogenesis both inside and below the hydrogel
